Legend:
Assay in all cases: MIC determination in broth
Type in all cases: cell-based, Staphylococcus aureus
[1] = system: MRSA ATCC BAA-44; details: STIP3 variants, highest conc. tested 100 μg/mL; cation-adjusted MH broth, ~10^5 CFU/mL, 2-fold dilution series, 37°C, 16 h
Description: (§1) M. luteus ATCC 4698, S. aureus ATCC 29213, a panel of 7 MRSA (ATCC MP-2) strains, which includes ATCC BAA-41, BAA-42, BAA-44, BAA-1683, BAA-2094, BAA-2313, and 33592, and a series of additional bacterial isolates from human and veterinary cases were used in this study (Table S6). Bacterial strains were routinely grown in lysogeny broth (LB: 10 g/L tryptone, 5 g/L yeast extract, 10 g/L NaCl) at 30°C (M. luteus) or 37°C (Staphylococcus spp.) prior to use in specific experiments described below.
(§2) The MICs were measured for bioactive peptides identified from the initial screen. Cation-adjusted Mueller-Hinton (MH) broth was used as the growth medium for MIC determination experiments. Bacterial cultures were diluted to an OD of 5 × 10^−4 (∼10^5 CFU/mL) in 200 μL MH broth mixed with peptides in a 2-fold dilution series arrayed in 96-well plates. Plates were incubated without shaking at 30 or 37°C depending on the organism.

[2] = system: MRSA ATCC BAA-1683; details: STIP3 variants, highest conc. tested 100 μg/mL; cation-adjusted MH broth, ~10^5 CFU/mL, 2-fold dilution series, 37°C, 16 h
Description: as §1, §2

[3] = system: S. aureus ATCC 29213; details: STIP3 variants, highest conc. tested 100 μg/mL; cation-adjusted MH broth, ~10^5 CFU/mL, 2-fold dilution series, 37°C, 16 h
Description: as §1, §2

[4] = system: MRSA ATCC BAA-42; details: STIP3 variants, highest conc. tested 100 μg/mL; cation-adjusted MH broth, ~10^5 CFU/mL, 2-fold dilution series, 37°C, 16 h
Description: as §1, §2

[5] = system: MRSA ATCC BAA-41; details: STIP3 variants, highest conc. tested 100 μg/mL; cation-adjusted MH broth, ~10^5 CFU/mL, 2-fold dilution series, 37°C, 16 h
Description: as §1, §2

[6] = system: MRSA ATCC BAA-2313; details: STIP3 variants, highest conc. tested 100 μg/mL; cation-adjusted MH broth, ~10^5 CFU/mL, 2-fold dilution series, 37°C, 16 h
Description: as §1, §2

[7] = system: MRSA ATCC BAA-2094; details: STIP3 variants, highest conc. tested 100 μg/mL; cation-adjusted MH broth, ~10^5 CFU/mL, 2-fold dilution series, 37°C, 16 h
Description: as §1, §2

[8] = system: MRSA ATCC 33592; details: Table S5; STIP3 variants, highest conc. tested 100 μg/mL; cation-adjusted MH broth, ~10^5 CFU/mL, 2-fold dilution series, 37°C, 16 h
Description: as §1, §2

Substance	MIC, S. aureus ATCC BAA 44 (SCCmec I) [1]	MIC, S. aureus ATCC BAA 1683 (SCCmec IV) [2]	MIC, S. aureus ATCC 29213 [3]	MIC, S. aureus ATCC BAA 42 (SCCmec VI) [4]	MIC, S. aureus ATCC BAA 41 (SCCmec II) [5]	MIC, S. aureus ATCC BAA 2313 (SCCmec XI) [6]	MIC, S. aureus ATCC BAA 2094 (SCCmec V) [7]	MIC, S. aureus ATCC 33592 (SCCmec III) [8]
TVAGLVKWILATVKKFA [STIP3-15, rationally designed STIP3-1 variant]	25 µg/mL	25 µg/mL	25 µg/mL	50 µg/mL	50 µg/mL	50 µg/mL	25 µg/mL	12.5 µg/mL
TVDGLVKWILATVKKFA [STIP3-17, rationally designed STIP3-1 variant]	> (The > symbol indicates that no inhibition was observed at 100 μg/mL for the STIP3 variants)	> (The > symbol indicates that no inhibition was observed at 100 μg/mL for the STIP3 variants)	> (The > symbol indicates that no inhibition was observed at 100 μg/mL for the STIP3 variants)	> (The > symbol indicates that no inhibition was observed at 100 μg/mL for the STIP3 variants)	> (The > symbol indicates that no inhibition was observed at 100 μg/mL for the STIP3 variants)	> (The > symbol indicates that no inhibition was observed at 100 μg/mL for the STIP3 variants)	> (The > symbol indicates that no inhibition was observed at 100 μg/mL for the STIP3 variants)	> (The > symbol indicates that no inhibition was observed at 100 μg/mL for the STIP3 variants)
TVGGLVKWILAAVKKFA [STIP3-12, rationally designed STIP3-1 variant]	25 µg/mL	25 µg/mL	25 µg/mL	25 µg/mL	25 µg/mL	25 µg/mL	50 µg/mL	25 µg/mL
TVGGLVKWILDTFKKFA [STIP3-11, rationally designed STIP3-1 variant]	100 µg/mL	50 µg/mL	50 µg/mL	50 µg/mL	50 µg/mL	100 µg/mL	100 µg/mL	50 µg/mL
TVGGLVKWILDTVKKFA-NH2 [STIP3-27, C-terminally amidated STIP3-1]	25 µg/mL	25 µg/mL	50 µg/mL	25 µg/mL	25 µg/mL	50 µg/mL	25 µg/mL	50 µg/mL
TVGGLVKWILDVVKKFA [STIP3-9, rationally designed STIP3-1 variant]	25 µg/mL	25 µg/mL	25 µg/mL	25 µg/mL	35 µg/mL	25 µg/mL	25 µg/mL	25 µg/mL
